In patent US20150051210A1, “Tyrosine Kinase Inhibitor Combinations and their Use” (Novartis AG, priority 2012, published 2015):

Legend:
Type in all cases: cell-based
[1] = tested on: KYM-1 cells; experiment: Combination assay (concentration matrix, resazurin, Loewe synergy) in KYM-1; details: KYM-1, checkerboard layout, monolayer / non-adherent / semi-solid media
Procedure: Combinatorial anti-proliferative effects of Cpd. B (“B) in the tables below) and BGJ398 (“C” in the tables below) were measured in KYM-1, MG-63, and Hs-683 cells on 96-well-plates using the concentration matrix depicted below:
Cells were grown under three different conditions (see FIG. 7): Experiments labeled “monolayer” were conducted on regular tissue culture plates, allowing cells to adhere and eventually form a monolayer. Cells were seeded on 3 plates per experiment (triplicates) in standard growth media as described above at a density of 5000 per well. Six to eight wells on a separate plate were seeded to quantify the amount of viable cells at the point of compound addition. […] At the same time, viable cells on the separate plate mentioned above were quantified using a resazurin sodium salt dye reduction readout. […] Quantification of Synergy was done using the methods described in G. R. Zimmermann et al., Drug Discovery Today, Vol. 12, No. ½, 2007, pages 34 to 42, and especially J. Lehár et al., Nature Biotechnology Vol. 27, No. 7, 2009, pages 659 to 666, in short by iteratively calculating the Loewe additive response ILoewe (X, Y) at each dose matrix point from the single-agent response curves, and then summing the differences between ILoewe and the experimental data. […]

[2] = tested on: ERK and AKT phosphorylation in KYM-1, MG-63, Hs-683 cells; experiment: Western blots in KYM-1, MG-63 and Hs-683 cells (data not shown); details: 24 h
Procedure: The indicated cell lines were seeded on 6-well-plates at a density of 500000 cells/well, left for 24 h to attach and then treated with a final concentration of 1 nM of the indicated compounds for another 24 h. Growth media were then removed, cells were washed twice with ice-cold PBS and lysed in 50 mmol/L Tris pH 7.5, 120 mmol/L NaCl, 20 mmol/L NaF, 1 mmol/L EDTA, 6 mmol/L EGTA, 1 mmol/L Benzamidin, 0.2 mmol/L PMSF, 100 mmol/L sodium vanadate, 1% NP-40. The protein concentration of cleared lysates was determined with the BCA Protein Assay Kit. 80 μg protein of each sample was separated by SDS-PAGE on NuPage 4-12% Tris-Bis Midi gels, transferred to a PVDF-membrane, and probed with antibodies as listed above. After washing and incubation with secondary HRP-linked antibodies, bands were visualized using ECL detection reagent.

[3] = tested on: phosphorylation of MET, ERK1/2, AKT, FRS2 in MKN-45; experiment: Western blots of protein phosphorylation in MKN-45 cells
Procedure: Western Blots (Figures not Shown) MKN-45 and RT-112 cells were treated in 6-well plates for 2 hours and 18 hours in the presence or absence of purified protein (rhFGF7, rhNRG1-31, or rhHGF), and/or inhibitor (Cpd. B, Cpd. A, BGJ398). Following wash with ice-cold PBS, cells were lysed with RIPA buffer (Thermo) containing phosphatase (Thermo) and proteinase (Roche) inhibitor cocktails. Total protein was quantified by bicinchoninic protein assay (Pierce). Aliquots of 20 μg were resolved by electrophoresis on NuPAGE SDS-PAGE 4-12% BIS-Tris gels before transfer to nitrocellulose membranes. Membranes were blocked for one hour at room temperature before overnight incubation at 4° C. with the following primary antibodies (source rabbit, 1:1000 final dilution): anti-phospho-Akt (Ser473), anti-phospho-MET (Tyr1234/1235), anti-phospho-MAPK/ERK(1/2) (Thr202/Tyr204), anti-AKT, anti-MAPK/Erk(1/2), and anti-α/β-Tubulin . Anti-MET was probed at 1:800 final dilution An internal antibody was used for phospho-FRS2(Y346) (1:1500 dilution). Membranes were then washed 3 times in PBS+0.1% Tween before addition of secondary antibody, IRDye 680LT goat anti-rabbit IgG , dilution 1:15000. After one hour at room temperature, membranes were washed and bands were visualized using an Odyssey Infrared Imager.

SMILES	growth suppression [1]	inhibition of own target as single agent (Western blot) [2]	effect on phosphorylation of several proteins (MET, ERK1/2, AKT, FRS2) ([3]; MKN-45, absence of added ligands)	reversal of FGF7 rescue effect on FRS2 and ERK1/2 phosphorylation ([3]; MKN-45, MET inhibitor plus FGF7)
CNC(=O)c1ccc(-c2cnc3ncc(Cc4ccc5ncccc5c4)n3n2)cc1F [Cpd. B, 2-fluoro-N-methyl-4-[(7-quinolin-6-yl-methyl)-imidazo[1,2-b]triazin-2-yl]benzamide]	no effect	effectively inhibited its own target	profound effect	–
CCN1CCN(c2ccc(Nc3cc(N(C)C(=O)Nc4c(Cl)c(OC)cc(OC)c4Cl)ncn3)cc2)CC1 [BGJ398, 3-(2,6-dichloro-3,5-dimethoxy-phenyl)-1-{6-[4-(4-ethylpiperazin-1-yl)-phenylamino]-pyrimidin-4-yl}-1-methyl-urea]	partial growth suppression	effectively inhibited its own target	–	reversed
